Results from publication PMC9865890, “N-Derivatives of (Z)-Methyl 3-(4-Oxo-2-thioxothiazolidin-5-ylidene)methyl)-1H-indole-2-carboxylates as Antimicrobial Agents—In Silico and In Vitro Evaluation” (Pharmaceuticals, 2023).
In brackets after ≈: the same amount, converted by molar mass. Read-outs that look alike come from different tables or passages of the source.

Legend:
A. ochraceus = test: Antifungal bioassay (MIC/MFC); format: cell-based; conditions: A.o. (A. ochraceus)
Experimental: (§1) For the antifungal bioassays, six fungi were used: […] The organisms were obtained from the Mycological Laboratory, Department of Plant Physiology, Institute for Biological Research “Siniša Stankovic”, Belgrade, Serbia. All experiments were performed in duplicate.

P. ochrochloron = test: Antifungal bioassay (MIC/MFC); format: cell-based; conditions: for MIC: P.o. (P. ochrochloron; text: P. ochramensis); for MFC: P.o. (P. ochrochloron)
Experimental: as §1

[1] = system: Trichoderma viride (IAM 5061); test: Antifungal bioassay (MIC/MFC); format: cell-based; conditions: T.v. (T. viride)
Experimental: as §1

[2] = system: Aspergillus versicolor (ATCC 11730); test: Antifungal bioassay (MIC/MFC); format: cell-based; conditions: ATCC11730, A.v. (A. versicolor)
Experimental: as §1

[3] = system: Aspergillus fumigatus (ATCC 1022); test: Antifungal bioassay (MIC/MFC); format: cell-based; conditions: ATCC1022, A.f. (A. fumigatus)
Experimental: as §1

[4] = system: Penicillium funiculosum (ATCC 36839); test: Antifungal bioassay (MIC/MFC); format: cell-based; conditions: Talaromyces funiculosus, ATCC36839; P.f. (P. funiculosum)
Experimental: as §1

[5] = system: Aspergillus niger (ATCC 6275); test: Antifungal bioassay (MIC/MFC); format: cell-based; conditions: ATCC6275, A.n. (A. niger)
Experimental: as §1

[6] = system: Penicillium verrucosum var. cyclopium (food isolate); test: Antifungal bioassay (MIC/MFC); format: cell-based
Experimental: For the antifungal bioassays, six fungi were used: Aspergillus niger (ATCC 6275), Aspergillus fumigatus (ATCC 1022), Aspergillus versicolor (ATCC 11730), Penicillium funiculosum (ATCC 36839), Trichoderma viride (IAM 5061), and Penicillium verrucosum var. cyclopium (food isolate). The organisms were obtained from the Mycological Laboratory, Department of Plant Physiology, Institute for Biological Research “Siniša Stankovic”, Belgrade, Serbia. All experiments were performed in duplicate.

[7] = system: Enterobacter cloacae (clinical isolate); test: Antibacterial microdilution (MIC/MBC); format: cell-based; conditions: Enterobacter cloacae, En.cl (En. cloacae); for MIC: read-out: MIC
Experimental: (§2) The synthesized compounds (Table 1) were evaluated for their antibacterial activity against a panel of eight species using a microdilution method with ampicillin and streptomycin as reference drugs. […] The order of activity can be presented as: 8 > 11 > 2 > 1 > 12 > 3 > 17 > 7 > 5 > 13 > 14 > 16 > 9 > 4 = 6 > 15 > 10. […] Cloacae. […] The most sensitive bacteria appeared to be En. cloacae, while E. coli was the most resistant one, followed by M. flavus.
(§3) The following Gram-negative bacteria: Escherichia coli (ATCC 35210), Enterobacter cloacae (clinical isolate), Salmonella typhimurium (ATCC 13311), as well as Gram-positive bacteria: Listeria monocytogenes (NCTC 7973), Bacillus cereus (clinical isolate), and Staphylococcus aureus (ATCC 6538) were used. The organisms were obtained from the Mycological Laboratory, Department of Plant Physiology, Institute for Biological Research “Siniša Stankovic”, Belgrade, Serbia. The minimum inhibitory (MIC) and minimum bactericidal (MBC) concentrations were determined by the modified microdilution method, as previously reported.

P. aeruginosa = test: Antibacterial microdilution (MIC/MBC); format: cell-based; conditions: Pseudomonas aeruginosa, P.a. (P. aeruginosa); for MIC: read-out: MIC
Experimental: as §2, §3

[8] = system: Staphylococcus aureus (ATCC 6538); test: Antibacterial microdilution (MIC/MBC); format: cell-based; conditions: Staphylococcus aureus, ATCC6538, S.a. (S. aureus); for MIC: read-out: MIC
Experimental: as §2, §3

[9] = system: Listeria monocytogenes (NCTC 7973); test: Antibacterial microdilution (MIC/MBC); format: cell-based; conditions: Listeria monocytogenes, NCTC7973, L.m. (L. monocytogenes); for MIC: read-out: MIC
Experimental: as §2, §3

[10] = system: Bacillus cereus (clinical isolate); test: Antibacterial microdilution (MIC/MBC); format: cell-based; conditions: B.c. (B. cereus)
Experimental: as §2, §3

[11] = system: Escherichia coli (ATCC 35210); test: Antibacterial microdilution (MIC/MBC); format: cell-based; conditions: E. coli
Experimental: as §2, §3

[12] = system: Salmonella typhimurium (ATCC 13311); test: Antibacterial microdilution (MIC/MBC); format: cell-based; conditions: S.t. (S. typhimurium)
Experimental: as §2, §3

M. flavus = test: Antibacterial microdilution (MIC/MBC); format: cell-based; conditions: Micrococcus flavus; M.f. (M. flavus)
Experimental: as §2, §3

[13] = Aspergillus ochraceus, read-out: MIC
[14] = Penicillium ochrochloron, read-out: MIC
[15] = Trichoderma viride, IAM5061, read-out: MIC
[16] = Escherichia coli, ATCC35210, read-out: MIC
[17] = Salmonella enterica, read-out: MIC

| SMILES | MFC (A. ochraceus; Aspergillus ochraceus) [µg/mL] | MIC (A. ochraceus; [13]) [µg/mL] | MIC (P. ochrochloron) [µg/mL] | MFC (P. ochrochloron; Penicillium ochrochloron) [µg/mL] | MIC (P. ochrochloron; [14]) [µg/mL] | MFC ([1]; Trichoderma viride, IAM5061) [µg/mL] | MIC [1, 15] [µg/mL] | MFC [2] [µg/mL] | MIC [2] [µg/mL] | MFC [3] [µg/mL] | MIC [3] [µg/mL] | MFC [4] [µg/mL] | MIC [4] [µg/mL] | MFC [5] [µg/mL] | MIC [5] [µg/mL] | MFC [6] [µg/mL] | MIC [6] [µg/mL] | melting point [°C] | MBC [7] [µg/mL] | MIC [7] [µg/mL] | also measured |
| --- | --- | --- | --- | --- | --- | --- | --- | --- | --- | --- | --- | --- | --- | --- | --- | --- | --- | --- | --- | --- | --- |
| COC(=O)c1[nH]c2ccc(F)cc2c1/C=C1\SC(=S)N(C)C1=O [Compound 15, (Z)-methyl 5-fluoro-3-((3-methyl-4-oxo-2-thioxothiazolidin-5-ylidene)methyl)-1H-indole-2-carboxylate] | 15 ± 3 (≈ 42.8 µM) | 8 ± 0.6 (≈ 22.8 µM) | 8 ± 0.6 (≈ 22.8 µM) | 15 ± 3 (≈ 42.8 µM) | 8 (≈ 22.8 µM) | 15 ± 3 (≈ 42.8 µM) | 8 (≈ 22.8 µM) | 15 ± 3 (≈ 42.8 µM) | 8 ± 0.6 (≈ 22.8 µM) | 30 ± 10 (≈ 85.6 µM) | 15 ± 3 (≈ 42.8 µM) | 15 ± 3 (≈ 42.8 µM) | 8 ± 0.6 (≈ 22.8 µM) | 15 ± 3 (≈ 42.8 µM) | 8 ± 0.6 (≈ 22.8 µM) | 15 ± 3 (≈ 42.8 µM) | 8 ± 0.6 (≈ 22.8 µM) | 234 to 244 | 60 ± 6 (≈ 171 µM) | 30 ± 10 (≈ 85.6 µM) | MIC [1]: 8 ± 0.6 µg/mL (≈ 22.8 µM); MBC (P. aeruginosa): 60 ± 6 µg/mL (≈ 171 µM); MIC (P. aeruginosa): 30 ± 10 µg/mL (≈ 85.6 µM); MBC [8]: 30 ± 10 µg/mL (≈ 85.6 µM); MIC [8]: 22 ± 5 µg/mL (≈ 62.8 µM); MBC [9]: 60 ± 6 µg/mL (≈ 171 µM); MIC [9]: 45 ± 3 µg/mL (≈ 128 µM); MBC ([10]; Bacillus cereus): 60 ± 6 µg/mL (≈ 171 µM); MIC ([10]; Bacillus cereus, read-out: MIC): 30 ± 10 µg/mL (≈ 85.6 µM); MBC ([11]; Escherichia coli, ATCC35210): 60 ± 6 µg/mL (≈ 171 µM); MIC [11, 16]: 45 ± 3 µg/mL (≈ 128 µM); MBC ([12]; Salmonella enterica): 60 ± 6 µg/mL (≈ 171 µM); MIC [12, 17]: 45 ± 3 µg/mL (≈ 128 µM); MBC (M. flavus): 60 ± 6 µg/mL (≈ 171 µM); MIC (M. flavus): 45 ± 3 µg/mL (≈ 128 µM) |
| COC(=O)c1[nH]c2ccccc2c1/C=C1\SC(=S)N(CCCCCC(=O)O)C1=O [Compound 1, (Z)-6-(5-((2-(methoxycarbonyl)-1H-indol-3-yl)methylene)-4-oxo-2-thioxothiazolidin-3-yl)hexanoic acid] | 15 ± 3 (≈ 34.7 µM) | 8 (≈ 18.5 µM) | 4 ± 1 (≈ 9.25 µM) | 8 ± 0.6 (≈ 18.5 µM) | 4 (≈ 9.25 µM) | 30 ± 10 (≈ 69.4 µM) | 15 ± 3 (≈ 34.7 µM) | 60 ± 6 (≈ 139 µM) | 30 ± 10 (≈ 69.4 µM) | 120 ± 40 (≈ 277 µM) | 60 ± 6 (≈ 139 µM) | 30 ± 10 (≈ 69.4 µM) | 15 ± 3 (≈ 34.7 µM) | 30 ± 10 (≈ 69.4 µM) | 22 ± 5 (≈ 50.9 µM) | 60 ± 6 (≈ 139 µM) | 30 ± 10 (≈ 69.4 µM) | 135 to 138 | 30 ± 10 (≈ 69.4 µM) | 22 ± 5 (≈ 50.9 µM) | MIC (A. ochraceus): 8 ± 0.6 µg/mL (≈ 18.5 µM); MBC (P. aeruginosa): 60 ± 6 µg/mL (≈ 139 µM); MIC (P. aeruginosa): 22 ± 5 µg/mL (≈ 50.9 µM); MBC [8]: 30 ± 10 µg/mL (≈ 69.4 µM); MIC [8]: 22 ± 5 µg/mL (≈ 50.9 µM); MBC [9]: 60 ± 6 µg/mL (≈ 139 µM); MIC [9]: 22 ± 4 µg/mL (≈ 50.9 µM); MIC [10]: 15 ± 9 µg/mL (≈ 34.7 µM); MBC ([10]; Bacillus cereus): 30 ± 10 µg/mL (≈ 69.4 µM); MIC ([10]; Bacillus cereus, read-out: MIC): 15 µg/mL (≈ 34.7 µM); MIC [11]: 15 ± 9 µg/mL (≈ 34.7 µM); MBC ([11]; Escherichia coli, ATCC35210): 30 ± 10 µg/mL (≈ 69.4 µM); MIC [11, 16]: 15 µg/mL (≈ 34.7 µM); MIC [12]: 15 ± 9 µg/mL (≈ 34.7 µM); MBC ([12]; Salmonella enterica): 30 ± 10 µg/mL (≈ 69.4 µM); MIC [12, 17]: 15 µg/mL (≈ 34.7 µM); MBC (M. flavus): 30 ± 10 µg/mL (≈ 69.4 µM); MIC (M. flavus): 22 ± 5 µg/mL (≈ 50.9 µM) |
